Experimental data as given in patent US20220402935A1, “HETEROCYCLIC COMPOUND” (FIMECS, INC., priority 2019, published 2022).
Where a name gives a salt, the structure may show the parent alone.

Molecular target: T1, IRAK-M (Homo sapiens, UniProt Q9Y616)
T1 sequence (Q9Y616 1-596): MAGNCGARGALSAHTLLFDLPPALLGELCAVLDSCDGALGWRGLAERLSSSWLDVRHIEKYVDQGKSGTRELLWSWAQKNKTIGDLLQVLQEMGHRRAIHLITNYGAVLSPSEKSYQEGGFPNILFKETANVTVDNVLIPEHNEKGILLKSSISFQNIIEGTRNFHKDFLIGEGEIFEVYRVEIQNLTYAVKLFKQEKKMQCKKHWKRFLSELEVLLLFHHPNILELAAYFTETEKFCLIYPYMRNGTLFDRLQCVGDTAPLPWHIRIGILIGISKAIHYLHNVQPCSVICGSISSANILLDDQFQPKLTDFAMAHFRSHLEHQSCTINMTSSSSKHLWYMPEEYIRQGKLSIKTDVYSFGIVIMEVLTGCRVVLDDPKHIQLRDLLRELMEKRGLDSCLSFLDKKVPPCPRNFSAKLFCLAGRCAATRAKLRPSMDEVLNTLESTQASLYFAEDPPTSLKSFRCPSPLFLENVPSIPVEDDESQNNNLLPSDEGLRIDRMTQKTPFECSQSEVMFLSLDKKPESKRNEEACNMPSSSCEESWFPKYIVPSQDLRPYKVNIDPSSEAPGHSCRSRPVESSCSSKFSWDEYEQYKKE
Test: IRAK-M binding inhibitory activity (KINOMEscan active site-dependent competitive assay)
Set-up: purchased Eurofins Discover X
Conditions: concentration of the test compound 1 μM; first symbol of cell; read-out: IRAK-M binding inhibition activity % Ctrl
Procedure: IRAK-M binding inhibitory activity was evaluated using active site-dependent competitive assay KINOMEscan® provided by Eurofins Discover X (Goldstein, D. M. et al. High-throughput kinase profiling as a platform for drug discovery. Nat. Rev. Drug Discovery. 7, 391-397 (2008)). IRAK-M binding inhibitory activity of the test compound was evaluated. […] The “% Ctrl” is calculated by the following formula.
(test compound signal−positive control compound signal)/(negative control compound signal−positive control compound signal)×100
Negative control compound=DMSO (100 Ctrl)
Positive control compound=control compound (0%×Ctrl)

remaining binding at 1 µM [%]	SMILES
25 to 50	Cc1ccc(NS(=O)(=O)c2ccc(CNC(=O)COCCOCCOc3cc(CN4CCC(Oc5ccnc6ccsc56)CC4)on3)cc2)c2[nH]cc(C#N)c12 [Example 68, N-(4-(N-(3-cyano-4-methyl-1H-indol-7-yl)sulfamoyl)benzyl)-2-(2-(2-((5-((4-(thieno[3,2-b]pyridin-7-yloxy)piperidin-1-yl)methyl)isoxazol-3-yl)oxy)ethoxy)ethoxy)acetamide]
25 to 50	Cc1ccc(NS(=O)(=O)c2ccc(CNC(=O)COCCOCCOCCOc3cc(CN4CCC(Oc5ccnc6ccsc56)CC4)on3)cc2)c2[nH]cc(C#N)c12 [Example 69, N-(4-(N-(3-cyano-4-methyl-1H-indol-7-yl)sulfamoyl)benzyl)-2-(2-(2-(2-((5-((4-(thieno[3,2-b]pyridin-7-yloxy)piperidin-1-yl)methyl)isoxazol-3-yl)oxy)ethoxy)ethoxy)ethoxy)acetamide]
< 25	Cc1ccc(NS(=O)(=O)c2ccc(CNC(=O)COCCOc3cc(CN4CCC(Oc5ccnc6ccsc56)CC4)on3)cc2)c2[nH]cc(C#N)c12 [Example 70, N-(4-(N-(3-cyano-4-methyl-1H-indol-7-yl)sulfamoyl)benzyl)-2-(2-((5-((4-(thieno[3,2-b]pyridin-7-yloxy)piperidin-1-yl)methyl)isoxazol-3-yl)oxy)ethoxy)acetamide]
< 25	C=CCOc1cc(C(C)N2CCC(Oc3ccnc4cc(C)sc34)CC2)on1 (stereo not drawn) [Ref. example 8, 3-(allyloxy)-5-(1-(4-((2-methylthieno[3,2-b]pyridin-7-yl)oxy)piperidin-1-yl)ethyl)isoxazole (enantiomer)]
< 25	c1cc(OC2CCN(Cc3cc(OC[C@@H]4CCCN4)no3)CC2)c2sccc2n1 [Ref. example 10, (S)-3-(Pyrrolidin-2-ylmethoxy)-5-((4-(thieno[3,2-b]pyridin-7-yloxy)piperidin-1-yl)methyl)isoxazole trihydrochloride]
50 to 75	NC(=O)c1ccc(Nc2ncnc3ccsc23)c(OC2CCOC2)c1 (stereo not shown) [Ref. example 11, 3-((tetrahydrofuran-3-yl)oxy)-4-(thieno[3,2-d]pyrimidin-4-ylamino)benzamide]
≥ 75	c1ccc(Nc2ncnc3cc(-c4ccccc4)sc23)cc1 [Ref. example 12, N,6-diphenylthieno[3,2-d]pyrimidin-4-amine]
≥ 75	COc1ccccc1Nc1ncnc2cc(-c3ccccc3)sc12 [Ref. example 13, N-(2-methoxyphenyl)-6-phenylthieno[3,2-d]pyrimidin-4-amine]
25 to 50	c1ccc(-c2cc3ncnc(NCC4CC4)c3s2)cc1 [Ref. example 14, N-(cyclopropylmethyl)-6-phenylthieno[3,2-d]pyrimidin-4-amine]
25 to 50	c1ccc(-c2cc3ncnc(Nc4ccccn4)c3s2)cc1 [Ref. example 15, 6-phenyl-N-(pyridin-2-yl)thieno[3,2-d]pyrimidin-4-amine]
50 to 75	c1ccc(-c2cc3ncnc(NCc4cccnc4)c3s2)cc1 [Ref. example 16, 6-phenyl-N-(pyridin-3-ylmethyl)thieno[3,2-d]pyrimidin-4-amine]
≥ 75	c1ccc(CCNc2ncnc3cc(-c4ccccc4)sc23)cc1 [Ref. example 17, N-phenethyl-6-phenylthieno[3,2-d]pyrimidin-4-amine]
50 to 75	NC(=O)c1ccc(Nc2ncnc3ccsc23)cc1 [Ref. example 18, 4-(thieno[3,2-d]pyrimidin-4-ylamino)benzamide]
50 to 75	c1ccc(OC2CCOC2)c(Nc2ncnc3ccsc23)c1 (stereo not shown) [Ref. example 19, N-(2-((tetrahydrofuran-3-yl)oxy)phenyl)thieno[3,2-d]pyrimidin-4-amine]
50 to 75	NC(=O)c1cccc(Nc2ncnc3ccsc23)c1 [Ref. example 20, 3-(thieno[3,2-d]pyrimidin-4-ylamino)benzamide]
< 25	c1cc(Nc2ncnc3ccsc23)ccn1 [Ref. example 21, N-(pyridin-4-yl)thieno[3,2-d]pyrimidin-4-amine]
50 to 75	FC(F)(F)c1cc(Nc2ncnc3ccsc23)ccn1 [Ref. example 22, N-(2-(trifluoromethyl)pyridin-4-yl)thieno[3,2-d]pyrimidin-4-amine]
25 to 50	COc1cc(Nc2ncnc3ccsc23)ccn1 [Ref. example 23, N-(2-methoxypyridin-4-yl)thieno[3,2-d]pyrimidin-4-amine]
50 to 75	FC(F)(F)c1ncccc1Nc1ncnc2ccsc12 [Ref. example 24, N-(2-(trifluoromethyl)pyridin-3-yl)thieno[3,2-d]pyrimidin-4-amine]
25 to 50	Cc1cc(Nc2ncnc3ccsc23)n(-c2ccccn2)n1 [Ref. example 25, N-(3-methyl-1-(pyridin-2-yl)-1H-pyrazol-5-yl)thieno[3,2-d]pyrimidin-4-amine]
≥ 75	c1nc(Nc2ccc3[nH]cnc3c2)c2sccc2n1 [Ref. example 26, N-(1H-benzo[d]imidazol-5-yl)thieno[3,2-d]pyrimidin-4-amine]
50 to 75	O=C1NC(=O)c2cc(Nc3ncnc4ccsc34)ccc21 [Ref. example 27, 5-(thieno[3,2-d]pyrimidin-4-ylamino)isoindoline-1,3-dione]
50 to 75	c1nc(Nc2ccc3cn[nH]c3c2)c2sccc2n1 [Ref. example 28, N-(1H-indazol-6-yl)thieno[3,2-d]pyrimidin-4-amine]
25 to 50	O=C1OCc2cc(Nc3ncnc4ccsc34)ccc21 [Ref. example 29, 5-(thieno[3,2-d]pyrimidin-4-ylamino)isobenzofuran-1(3H)-one]
≥ 75	COC(=O)c1cc2ncnc(NCC3CC3)c2s1 [Ref. example 30, methyl 4-((cyclopropylmethyl)amino)thieno[3,2-d]pyrimidine-6-carboxylate]
≥ 75	CN1CCC(Oc2ncnc3cc(-c4cnn(C)c4)sc23)CC1 [Ref. example 31, 6-(1-methyl-1H-pyrazol-4-yl)-4-((1-methylpiperidin-4-yl)oxy)thieno[3,2-d]pyrimidine]
≥ 75	C#Cc1cc2ncnc(OC3CCN(C)CC3)c2s1 [Ref. example 32, 6-ethynyl-4-((1-methylpiperidin-4-yl)oxy)thieno[3,2-d]pyrimidine]
≥ 75	NC(=O)c1ccc(Nc2nc(Cl)nc3ccsc23)cc1 [Ref. example 33, 4-((2-chlorothieno[3,2-d]pyrimidin-4-yl)amino)benzamide]

SMILES	remaining binding at 1 µM [%]
Oc1cc(CN2CCC(Oc3ccnc4ccsc34)CC2)on1 [Ref. example 4, 5-((4-(thieno[3,2-b]pyridin-7-yloxy)piperidin-1-yl)methyl)isoxazol-3-ol]	50 to 75

Same assay, conditions: second symbol of cell; read-out: IRAK-M binding inhibition IC50 value

IC50 [µM]	SMILES
0.1 to 0.3	O=C1CCC(N2C(=O)c3cccc(OCCOCCOCCOCCOc4cc(CN5CCC(Oc6ccnc7ccsc67)CC5)on4)c3C2=O)C(=O)N1 (stereo not shown) [Example 67, 2-(2,6-dioxopiperidin-3-yl)-4-(2-(2-(2-(2-((5-((4-(thieno[3,2-b]pyridin-7-yloxy)piperidin-1-yl)methyl)isoxazol-3-yl)oxy)ethoxy)ethoxy)ethoxy)ethoxy)isoindoline-1,3-dione]
0.1 to 0.3	C=CCOc1cc(CN2CCC(Oc3ccnc4ccsc34)CC2)on1 [Ref. example 3]
